Assay results: the supplement of paper PMC11451515

Assays:
Settings in all cases: 48 h
P12-Ichikawa [1] = test: cell viability relative to DMSO control; higher = less cytotoxic
Summary of the method: (§1)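 Viability is expressed as a percentage of DMSO wells within each plate, and cell-free wells serve as background. Seeding densities in the 1536-well plates (5 μl) were 500 cells/well for NOMO1 or SEM leukemia cells and 1000 cells/well for P12-Ichikawa. Each line was adapted for at least four passages in each medium. Library compounds in DMSO were pin-dosed at 47 μM to 0.79 nM (11 points, threefold), and CellTiter-Glo One luminescence was read after 48 h at 37°C.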

SEM cells [2] = test: as above
Summary of the method: as §1

NOMO1 [3] = test: as above
Summary of the method: as §1

P12-Ichikawa [4] = test: AUC of viability dose-response curve (% viability x log10 dose units); higher = less sensitive
Summary of the method: (§2)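 Library compounds in DMSO were applied for 48 h at 37°C at 11 threefold doses (47 μM to 0.79 nM) to medium-adapted leukemia cells in 1536-well plates holding 500 or 1000 cells/well. Luminescence from CellTiter-Glo One was normalised plate by plate against DMSO and cell-free wells. Area under the curve came from trapezoidal integration of a log-logistic fit, after scaling curves that rose above full viability and discarding those that failed quality control. The fit had four parameters and used log10 doses.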

SEM cells [5] = test: as above
Summary of the method: as §2

NOMO1 [6] = test: as above
Summary of the method: as §2

CN\1C(=O)/C(=C(\N=C1N2CCCC[S+]2([O-])=O)C(=O)NCC3=CC=C(F)C=C3)O
cell viability [%]
Settings	NOMO1 [3]	P12-Ichikawa [1]	SEM cells [2]
HPLM + 10% dialyzed FBS, 0.000781 µM	–	124	98.9
HPLM + 10% dialyzed FBS, 0.00234 µM	–	123	107
HPLM + 10% dialyzed FBS, 0.00702 µM	–	115	104
HPLM + 10% dialyzed FBS, 0.0211 µM	–	113	97.3
HPLM + 10% dialyzed FBS, 0.0632 µM	–	118	98.5
HPLM + 10% dialyzed FBS, 0.19 µM	–	122	96.6
HPLM + 10% dialyzed FBS, 0.569 µM	–	119	96.9
HPLM + 10% dialyzed FBS, 1.71 µM	–	111	107
HPLM + 10% dialyzed FBS, 5.12 µM	–	107	98.3
HPLM + 10% dialyzed FBS, 15.4 µM	–	109	109
HPLM + 10% dialyzed FBS, 46.1 µM	–	103	91.2
RPMI 5 mM glucose + 10% FBS, 0.000781 µM	113	–	–
RPMI 5 mM glucose + 10% FBS, 0.00234 µM	105	–	–
RPMI 5 mM glucose + 10% FBS, 0.00702 µM	116	–	–
RPMI 5 mM glucose + 10% FBS, 0.0211 µM	124	–	–
RPMI 5 mM glucose + 10% FBS, 0.0632 µM	116	–	–
RPMI 5 mM glucose + 10% FBS, 0.19 µM	107	–	–
RPMI 5 mM glucose + 10% FBS, 0.569 µM	112	–	–
RPMI 5 mM glucose + 10% FBS, 1.71 µM	123	–	–
RPMI 5 mM glucose + 10% FBS, 5.12 µM	115	–	–
RPMI 5 mM glucose + 10% FBS, 15.4 µM	113	–	–
RPMI 5 mM glucose + 10% FBS, 46.1 µM	106	–	–
RPMI 5 mM glucose + 10% dialyzed FBS, 0.000781 µM	123	124	104
RPMI 5 mM glucose + 10% dialyzed FBS, 0.00234 µM	116	116	95.1
RPMI 5 mM glucose + 10% dialyzed FBS, 0.00702 µM	119	119	103
RPMI 5 mM glucose + 10% dialyzed FBS, 0.0211 µM	123	126	116
RPMI 5 mM glucose + 10% dialyzed FBS, 0.0632 µM	111	127	121
RPMI 5 mM glucose + 10% dialyzed FBS, 0.19 µM	119	117	97.8
RPMI 5 mM glucose + 10% dialyzed FBS, 0.569 µM	113	123	107
RPMI 5 mM glucose + 10% dialyzed FBS, 1.71 µM	107	120	111
RPMI 5 mM glucose + 10% dialyzed FBS, 5.12 µM	118	99.7	85.5
RPMI 5 mM glucose + 10% dialyzed FBS, 15.4 µM	105	109	111
RPMI 5 mM glucose + 10% dialyzed FBS, 46.1 µM	99.2	102	95.3

AUC of viability dose-response curve
Settings	NOMO1 [6]	P12-Ichikawa [4]	SEM cells [5]
HPLM + 10% dialyzed FBS	441	444	471
RPMI 5 mM glucose + 10% FBS	475	462	458
RPMI 5 mM glucose + 10% dialyzed FBS	451	459	466

C=CC(=O)Nc1cccc(Oc2nc(Nc3ccc(N4CCN(C)CC4)cc3)ncc2Cl)c1
cell viability [%]
Settings	NOMO1 [3]	P12-Ichikawa [1]	SEM cells [2]
HPLM + 10% dialyzed FBS, 0.000781 µM	93.3	109	94.3
HPLM + 10% dialyzed FBS, 0.00234 µM	110	123	112
HPLM + 10% dialyzed FBS, 0.00702 µM	119	123	109
HPLM + 10% dialyzed FBS, 0.0211 µM	125	122	116
HPLM + 10% dialyzed FBS, 0.0632 µM	131	131	128
HPLM + 10% dialyzed FBS, 0.19 µM	112	130	111
HPLM + 10% dialyzed FBS, 0.569 µM	106	122	104
HPLM + 10% dialyzed FBS, 1.71 µM	97.2	113	83
HPLM + 10% dialyzed FBS, 5.12 µM	88.3	102	22.1
HPLM + 10% dialyzed FBS, 15.4 µM	84.9	22.4	21.6
HPLM + 10% dialyzed FBS, 46.1 µM	135	52.5	22.2
RPMI 5 mM glucose + 10% dialyzed FBS, 0.000781 µM	–	–	108
RPMI 5 mM glucose + 10% dialyzed FBS, 0.00234 µM	–	–	107
RPMI 5 mM glucose + 10% dialyzed FBS, 0.00702 µM	–	–	125
RPMI 5 mM glucose + 10% dialyzed FBS, 0.0211 µM	–	–	124
RPMI 5 mM glucose + 10% dialyzed FBS, 0.0632 µM	–	–	128
RPMI 5 mM glucose + 10% dialyzed FBS, 0.19 µM	–	–	111
RPMI 5 mM glucose + 10% dialyzed FBS, 0.569 µM	–	–	103
RPMI 5 mM glucose + 10% dialyzed FBS, 1.71 µM	–	–	71.8
RPMI 5 mM glucose + 10% dialyzed FBS, 5.12 µM	–	–	21.1
RPMI 5 mM glucose + 10% dialyzed FBS, 15.4 µM	–	–	15
RPMI 5 mM glucose + 10% dialyzed FBS, 46.1 µM	–	–	10.4

AUC of viability dose-response curve
Settings	NOMO1 [6]	P12-Ichikawa [4]	SEM cells [5]
HPLM + 10% dialyzed FBS	465	420	369
RPMI 5 mM glucose + 10% FBS	454	392	303
RPMI 5 mM glucose + 10% dialyzed FBS	459	421	351
